Measured values: ChEMBL document CHEMBL2396621, “Design, synthesis and biological evaluation of 2-mercapto-3-phenethylquinazoline bearing anilide fragments as potential antitumor agents: molecular docking study” (2013)

Assays:
Format in all cases: functional
HT-29 = test: Cytotoxicity against human HT-29 cells assessed as growth inhibition at 10 uM after 48 hrs by coulter counter analysis; details: HT-29, 48 h, read-out: GI
Hs-578T = test: Cytotoxicity against human Hs578T cells assessed as growth inhibition at 10 uM after 48 hrs by coulter counter analysis; details: read-out: GI
KM12 = test: Cytotoxicity against human KM12 cells assessed as growth inhibition at 10 uM after 48 hrs by coulter counter analysis; details: KM12, 48 h, read-out: GI
NCI-H23 = test: Cytotoxicity against human NCI-H23 cells assessed as growth inhibition at 10 uM after 48 hrs by coulter counter analysis; details: NCI-H23, 48 h, read-out: GI
SK-MEL-28 = test: Cytotoxicity against human SK-MEL-28 cells assessed as growth inhibition at 10 uM after 48 hrs by coulter counter analysis; details: SK-MEL-28, 48 h, read-out: GI
PC-3 = test: Cytotoxicity against human PC3 cells assessed as growth inhibition at 10 uM after 48 hrs by coulter counter analysis; details: PC-3, 48 h, read-out: GI
HCC 2998 = test: Cytotoxicity against human HCC2998 cells assessed as growth inhibition at 10 uM after 48 hrs by coulter counter analysis; details: HCC 2998, 48 h, read-out: GI
NCI-H322M = test: Cytotoxicity against human NCI-H322M cells assessed as growth inhibition at 10 uM after 48 hrs by coulter counter analysis; details: read-out: GI
MDA-MB-435 = test: Cytotoxicity against human MDA-MB-435 cells assessed as growth inhibition at 10 uM after 48 hrs by coulter counter analysis; details: MDA-MB-435, 48 h, read-out: GI
M14 = test: Cytotoxicity against human M14 cells assessed as growth inhibition at 10 uM after 48 hrs by coulter counter analysis; details: M14, 48 h, read-out: GI
[1] = Cytotoxicity against human EKVX cells assessed as growth inhibition at 10 uM after 48 hrs by coulter counter analysis; details: read-out: GI
SNB-75 = test: Cytotoxicity against human SNB75 cells assessed as growth inhibition at 10 uM after 48 hrs by coulter counter analysis; details: SNB-75, 48 h, read-out: GI
ACHN = test: Cytotoxicity against human ACHN cells assessed as growth inhibition at 10 uM after 48 hrs by coulter counter analysis; details: read-out: GI
NCI-H226 = test: Cytotoxicity against human NCI-H226 cells assessed as growth inhibition at 10 uM after 48 hrs by coulter counter analysis; details: NCI-H226, 48 h, read-out: GI
OVCAR-3 = test: Cytotoxicity against human OVCAR3 cells assessed as growth inhibition at 10 uM after 48 hrs by coulter counter analysis; details: OVCAR-3, 48 h, read-out: GI
OVCAR-8 = test: Cytotoxicity against human OVCAR8 cells assessed as growth inhibition at 10 uM after 48 hrs by coulter counter analysis; details: OVCAR-8, 48 h, read-out: GI
LOX IMVI = test: Cytotoxicity against human LOXIMVI cells assessed as growth inhibition at 10 uM after 48 hrs by coulter counter analysis; details: read-out: GI
DU-145 = test: Cytotoxicity against human DU145 cells assessed as growth inhibition at 10 uM after 48 hrs by coulter counter analysis; details: DU-145, 48 h, read-out: GI
UACC-62 = test: Cytotoxicity against human UACC62 cells assessed as growth inhibition at 10 uM after 48 hrs by coulter counter analysis; details: UACC-62, 48 h, read-out: GI
SK-MEL-5 = test: Cytotoxicity against human SK-MEL-5 cells assessed as growth inhibition at 10 uM after 48 hrs by coulter counter analysis; details: SK-MEL-5, 48 h, read-out: GI
CAKI-1 = test: Cytotoxicity against human Caki1 cells assessed as growth inhibition at 10 uM after 48 hrs by coulter counter analysis; details: CAKI-1, 48 h, read-out: GI
786-0 = test: Cytotoxicity against human 786-0 cells assessed as growth inhibition at 10 uM after 48 hrs by coulter counter analysis; details: 786-0, 48 h, read-out: GI
HOP-62 = test: Cytotoxicity against human HOP62 cells assessed as growth inhibition at 10 uM after 48 hrs by coulter counter analysis; details: HOP-62, 48 h, read-out: GI
U-251 = test: Cytotoxicity against human U251 cells assessed as growth inhibition at 10 uM after 48 hrs by coulter counter analysis; details: U-251, 48 h, read-out: GI
SF-268 = test: Cytotoxicity against human SF268 cells assessed as growth inhibition at 10 uM after 48 hrs by coulter counter analysis; details: SF-268, 48 h, read-out: GI
HCT-15 = test: Cytotoxicity against human HCT15 cells assessed as growth inhibition at 10 uM after 48 hrs by coulter counter analysis; details: HCT-15, 48 h, read-out: GI
NCI-H460 = test: Cytotoxicity against human NCI-H460 cells assessed as growth inhibition at 10 uM after 48 hrs by coulter counter analysis; details: NCI-H460, 48 h, read-out: GI
HCT-116 = test: Cytotoxicity against human HCT116 cells assessed as growth inhibition at 10 uM after 48 hrs by coulter counter analysis; details: HCT-116, 48 h, read-out: GI
IGROV-1 = test: Cytotoxicity against human IGROV1 cells assessed as growth inhibition at 10 uM after 48 hrs by coulter counter analysis; details: IGROV-1, 48 h, read-out: GI
UO-31 = test: Cytotoxicity against human UO31 cells assessed as growth inhibition at 10 uM after 48 hrs by coulter counter analysis; details: UO-31, 48 h, read-out: GI
COLO 205 = test: Cytotoxicity against human COLO205 cells assessed as growth inhibition at 10 uM after 48 hrs by coulter counter analysis; details: COLO 205, 48 h, read-out: GI
MDA-MB-468 = test: Cytotoxicity against human MDA-MB-468 cells assessed as growth inhibition at 10 uM after 48 hrs by coulter counter analysis; details: MDA-MB-468, 48 h, read-out: GI
[2] = Cytotoxicity against human NCI-ADR-RES cells assessed as growth inhibition at 10 uM after 48 hrs by coulter counter analysis; details: read-out: GI
OVCAR-4 = test: Cytotoxicity against human OVCAR4 cells assessed as growth inhibition at 10 uM after 48 hrs by coulter counter analysis; details: OVCAR-4, 48 h, read-out: GI
TK-10 = test: Cytotoxicity against human TK10 cells assessed as growth inhibition at 10 uM after 48 hrs by coulter counter analysis; details: TK-10, 48 h, read-out: GI
UACC-257 = test: Cytotoxicity against human UACC257 cells assessed as growth inhibition at 10 uM after 48 hrs by coulter counter analysis; details: UACC-257, 48 h, read-out: GI
SF-295 = test: Cytotoxicity against human SF295 cells assessed as growth inhibition at 10 uM after 48 hrs by coulter counter analysis; details: SF-295, 48 h, read-out: GI

Compound	inhibition of growth at 10 µM (HT-29)	inhibition of growth at 10 µM (Hs-578T)	inhibition of growth at 10 µM (KM12)	inhibition of growth at 10 µM (NCI-H23)	inhibition of growth at 10 µM (SK-MEL-28)	inhibition of growth at 10 µM (PC-3)	inhibition of growth at 10 µM (HCC 2998)	inhibition of growth at 10 µM (NCI-H322M)	inhibition of growth at 10 µM (MDA-MB-435)	inhibition of growth at 10 µM (M14)	inhibition of growth at 10 µM (SNB-75)	inhibition of growth at 10 µM (ACHN)	inhibition of growth at 10 µM (OVCAR-3)	inhibition of growth at 10 µM (OVCAR-8)	inhibition of growth at 10 µM (LOX IMVI)	inhibition of growth at 10 µM (UACC-62)	inhibition of growth at 10 µM (SK-MEL-5)	inhibition of growth at 10 µM (786-0)	inhibition of growth at 10 µM (SF-268)	inhibition of growth at 10 µM (HCT-15)	other results
O=C(CSc1nc2ccccc2c(=O)n1CCc1ccccc1)Nc1cc(Cl)ccc1C(=O)O	< 10%	< 10%	< 10%	< 10%	< 10%	< 10%	< 10%	< 10%	< 10%	< 10%	20%	< 10%	< 10%	< 10%	< 10%	< 10%	< 10%	< 10%	< 10%	< 10%	inhibition of growth at 10 µM [1]: 20%; inhibition of growth at 10 µM (NCI-H226): < 10%; inhibition of growth at 10 µM (DU-145): < 10%; inhibition of growth at 10 µM (CAKI-1): 17%; inhibition of growth at 10 µM (HOP-62): < 10%; inhibition of growth at 10 µM (U-251): < 10%; inhibition of growth at 10 µM (NCI-H460): < 10%; inhibition of growth at 10 µM (HCT-116): < 10%; inhibition of growth at 10 µM (IGROV-1): < 10%; inhibition of growth at 10 µM (UO-31): 18%; inhibition of growth at 10 µM (COLO 205): < 10%; inhibition of growth at 10 µM (MDA-MB-468): < 10%; inhibition of growth at 10 µM [2]: < 10%; inhibition of growth at 10 µM (OVCAR-4): < 10%; inhibition of growth at 10 µM (TK-10): < 10%; inhibition of growth at 10 µM (UACC-257): < 10%; inhibition of growth at 10 µM (SF-295): < 10%
O=C(CSc1nc2ccccc2c(=O)n1CCc1ccccc1)Oc1ccccc1	< 10%	< 10%	< 10%	14%	< 10%	14%	< 10%	25%	19%	13%	28%	10%	< 10%	23%	16%	19%	< 10%	13%	16%	< 10%	inhibition of growth at 10 µM (CAKI-1): < 10%; inhibition of growth at 10 µM (NCI-H460): 14%; inhibition of growth at 10 µM (HCT-116): 21%; inhibition of growth at 10 µM (IGROV-1): 10%; inhibition of growth at 10 µM (UO-31): 16%; inhibition of growth at 10 µM (COLO 205): < 10%; inhibition of growth at 10 µM (MDA-MB-468): < 10%; inhibition of growth at 10 µM [2]: 22%; inhibition of growth at 10 µM (OVCAR-4): 59%; inhibition of growth at 10 µM (TK-10): < 10%; inhibition of growth at 10 µM (UACC-257): 11%; inhibition of growth at 10 µM (SF-295): 20%
COc1cc(NC(=O)CSc2nc3ccccc3c(=O)n2CCc2ccccc2)cc(OC)c1OC	85%	64%	93%	74%	63%	59%	66%	73%	> 100%	68%	> 100%	> 100%	> 100%	70%	70%	25%	> 100%	> 100%	87%	11%	inhibition of growth at 10 µM [1]: 35%; inhibition of growth at 10 µM (NCI-H226): > 100%; inhibition of growth at 10 µM (DU-145): 55%; inhibition of growth at 10 µM (HOP-62): 91%; inhibition of growth at 10 µM (U-251): > 100%; inhibition of growth at 10 µM (NCI-H460): > 100%; inhibition of growth at 10 µM (HCT-116): > 100%; inhibition of growth at 10 µM (IGROV-1): 92%; inhibition of growth at 10 µM (UO-31): > 100%; inhibition of growth at 10 µM (COLO 205): 71%; inhibition of growth at 10 µM (MDA-MB-468): 71%; inhibition of growth at 10 µM [2]: 64%; inhibition of growth at 10 µM (OVCAR-4): 47%; inhibition of growth at 10 µM (TK-10): > 100%; inhibition of growth at 10 µM (UACC-257): 61%; inhibition of growth at 10 µM (SF-295): 49%
O=C(CSc1nc2ccccc2c(=O)n1CCc1ccccc1)Nc1ccccc1C(=O)O	11%	45%	10%	26%	17%	< 10%	< 10%	19%	35%	12%	74%	34%	29%	61%	38%	21%	35%	16%	33%	12%	inhibition of growth at 10 µM [1]: 25%; inhibition of growth at 10 µM (NCI-H226): 26%; inhibition of growth at 10 µM (DU-145): 30%; inhibition of growth at 10 µM (CAKI-1): < 10%; inhibition of growth at 10 µM (HOP-62): 49%; inhibition of growth at 10 µM (NCI-H460): 41%; inhibition of growth at 10 µM (HCT-116): 45%; inhibition of growth at 10 µM (IGROV-1): 42%; inhibition of growth at 10 µM (UO-31): < 10%; inhibition of growth at 10 µM (COLO 205): 35%; inhibition of growth at 10 µM (MDA-MB-468): 14%; inhibition of growth at 10 µM [2]: 34%; inhibition of growth at 10 µM (OVCAR-4): 23%; inhibition of growth at 10 µM (TK-10): 19%; inhibition of growth at 10 µM (UACC-257): 35%; inhibition of growth at 10 µM (SF-295): 18%
